From patent publication US20130059783A1, “COMPOSITIONS AND METHODS FOR EXPANDING BFU-E CELLS” (priority 2010, published 2013)

System: mRNA expression in BFU-E cells
Assay: mRNA-Seq of BFU-E cells cultured 4 hours with or without Dex (Table S3)
Type: cell-based, mouse
Conditions: for Expression level log2((100 nM DEX)* (0 nM DEX)) / Expression of mRNA in BFU-E after 4 h 100 nM DEX (RPKM) / Expression change log2 ((100 nM DEX)/(0 nM DEX))2 / Expression change log2 ((100 nM DEX)/(0 nM DEX)): BFU-E, 4 h; for Expression change log2 ((100 nM DEX)/(0 nM DEX)): 100 nM vs 0 nM DEX
Source text: FIGS. 2A-2B. The effect of glucocorticoids on miRNA and mRNA expression in BFU-E cells determined by next generation sequencing. […] Both mRNAs and miRNAs were subjected to Illumina deep sequencing. […] (B) A plot similar to that in A for expression of individual mRNAs. mRNA expression was normalized using the RPKM method, which determines the relative expression of each gene to all expressed genes by giving each gene an RPKM count (number of uniquely aligning reads per kb exon per million total reads). […]
To minimize the risk of false positive GC target genes we chose to compare only highly expressed genes (≈10,000 genes with a multiplied RPKM count >4) (Mortazavi et al., 2008).
Samples for Paired-End mRNA-Seq were prepared using the Solexa kit according to the manufacturer's instructions with the exception that we extracted 300 bp bands, before and after the PCR step (Illumina). Images acquired from the Solexa sequencer were processed through the bundled Solexa image extraction pipeline version 1.4. mRNA-Seq reads were aligned to mouse NCBI build 37 (mm9) using ELAND, Briefly, the first 32 bases of a read were used as a seed. Each matched seed was then extended up to 36 bases and scored to break any ties between multi-matches. For mRNA expression counts, unique reads in the genome that landed within any exons of NCBI gene models (v37.1) were counted. The counts were normalized by the mRNA length to get the final RPKM values (i.e. reads per KB per million reads).

In the case of `C[C@@H]1C[C@H]2[C@@H]3CCC4=CC(=O)C=C[C@]4(C)[C@@]3(F)[C@@H](O)C[C@]2(C)[C@@]1(O)C(=O)CO` [Dex, dexamethasone], the “Expression level log2((100 nM DEX)* (0 nM DEX))” value (gene Kit) is reported as 12.13, the “Expression of mRNA in BFU-E after 4 h 100 nM DEX (RPKM)” value (“Expression of mRNA in BFU-E” for short) (gene Kit) is reported as 97.02 RPKM and the “Expression level log2((100 nM DEX)* (0 nM DEX))” value (gene Klf9) is reported as 4.86. For the same molecule, the “Expression of mRNA in BFU-E” value (gene Klf9) was 8.07 RPKM, the “Expression change log2 ((100 nM DEX)/(0 nM DEX))2” value (gene Klf13) was 1.37 and the “Expression level log2((100 nM DEX)* (0 nM DEX))” value (gene Klf13) was 8.41. For the same molecule, the “Expression of mRNA in BFU-E” value (gene Klf13) was 29.57 RPKM, the “Expression of mRNA in BFU-E” value (gene Lama5) was 3.90 RPKM and the “Expression change log2 ((100 nM DEX)/(0 nM DEX))2” value (gene Lrfn1) was 1.05. The “Expression level log2((100 nM DEX)* (0 nM DEX))” value (gene Lrfn1) was 2.45, the “Expression of mRNA in BFU-E” value (gene Lrfn1) was 3.37 RPKM and the “Expression of mRNA in BFU-E” value (gene Maff) was 6.11 RPKM. For the same molecule, the “Expression change log2 ((100 nM DEX)/(0 nM DEX))” value (gene Maff) was 2.58, the “Expression level log2((100 nM DEX)* (0 nM DEX))” value (gene Man2a2) was 9.07 and the “Expression of mRNA in BFU-E” value (gene Man2a2) was 35.22 RPKM. The “Expression level log2((100 nM DEX)* (0 nM DEX))” value (gene Mobkl2c) was 5.14, the “Expression of mRNA in BFU-E” value (gene Mobkl2c) was 8.65 RPKM and the “Expression of mRNA in BFU-E” value (gene Mt2) was 1306.42 RPKM. For the same molecule, the “Expression change log2 ((100 nM DEX)/(0 nM DEX))2” value (gene Nags) was 1.02, the “Expression level log2((100 nM DEX)* (0 nM DEX))” value (gene Nags) was 2.04 and the “Expression of mRNA in BFU-E” value (gene Nags) was 2.88 RPKM. The “Expression of mRNA in BFU-E” value (gene Ncoa7) was 7.54 RPKM, the “Expression change log2 ((100 nM DEX)/(0 nM DEX))2” value (gene Nfkbia) was 1.36 and the “Expression level log2((100 nM DEX)* (0 nM DEX))” value (gene Nfkbia) was 4.55. For the same molecule, the “Expression of mRNA in BFU-E” value (gene Nfkbia) was 7.75 RPKM, the “Expression of mRNA in BFU-E” value (gene Nhej1) was 4.51 RPKM and the “Expression level log2((100 nM DEX)* (0 nM DEX))” value (gene Nrgn) was 7.68. The “Expression of mRNA in BFU-E” value (gene Nrgn) was 21.01 RPKM, the “Expression of mRNA in BFU-E” value (gene Per1) was 23.34 RPKM and the “Expression change log2 ((100 nM DEX)/(0 nM DEX))” value (gene Per1) was 2.30. The “Expression of mRNA in BFU-E” value (gene Pex11a) was 5.87 RPKM, the “Expression of mRNA in BFU-E” value (gene Pfkfb4) was 12.25 RPKM and the “Expression change log2 ((100 nM DEX)/(0 nM DEX))” value (gene Pfkfb4) was 2.47. The “Expression level log2((100 nM DEX)* (0 nM DEX))” value (gene Pld6) was 2.64, the “Expression of mRNA in BFU-E” value (gene Pld6) was 3.65 RPKM and the “Expression of mRNA in BFU-E” value (gene Plk3) was 5.75 RPKM. For the same molecule, the “Expression change log2 ((100 nM DEX)/(0 nM DEX))” value (gene Plk3) was 1.76, the “Expression level log2((100 nM DEX)* (0 nM DEX))” value (gene Polr3gl) was 3.89 and the “Expression of mRNA in BFU-E” value (gene Polr3gl) was 5.93 RPKM. For the same molecule, the “Expression level log2((100 nM DEX)* (0 nM DEX))” value (gene Rab3il1) was 3.44, the “Expression of mRNA in BFU-E” value (gene Rab3il1) was 4.94 RPKM and the “Expression level log2((100 nM DEX)* (0 nM DEX))” value (gene Rapgef2) was 2.18. The “Expression of mRNA in BFU-E” value (gene Rapgef2) was 3.28 RPKM, the “Expression of mRNA in BFU-E” value (gene Rcsd1) was 8.11 RPKM and the “Expression change log2 ((100 nM DEX)/(0 nM DEX))” value (gene Rcsd1) was 1.68. For the same molecule, the “Expression level log2((100 nM DEX)* (0 nM DEX))” value (gene Rps6ka1) was 9.31, the “Expression of mRNA in BFU-E” value (gene Rps6ka1) was 39.02 RPKM and the “Expression of mRNA in BFU-E” value (gene Serpina3g) was 36.06 RPKM. For the same molecule, the “Expression change log2 ((100 nM DEX)/(0 nM DEX))” value (gene Serpina3g) was 2.06, the “Expression of mRNA in BFU-E” value (gene Slc30a10) was 7.11 RPKM and the “Expression level log2((100 nM DEX)* (0 nM DEX))” value (gene Slc44a2) was 9.19. The “Expression of mRNA in BFU-E” value (gene Slc44a2) was 35.91 RPKM, the “Expression of mRNA in BFU-E” value (gene Socs1) was 34.03 RPKM and the “Expression change log2 ((100 nM DEX)/(0 nM DEX))” value (gene Socs1) was 2.74. For the same molecule, the “Expression level log2((100 nM DEX)* (0 nM DEX))” value (gene Spry1) was 5.36, the “Expression of mRNA in BFU-E” value (gene Spry1) was 9.31 RPKM and the “Expression of mRNA in BFU-E” value (gene St3gal2) was 23.29 RPKM. For the same molecule, the “Expression of mRNA in BFU-E” value (gene Syne1) was 7.36 RPKM, the “Expression change log2 ((100 nM DEX)/(0 nM DEX))2” value (gene Tle4) was 1.29 and the “Expression level log2((100 nM DEX)* (0 nM DEX))” value (gene Tle4) was 6.76. The “Expression of mRNA in BFU-E” value (gene Tle4) was 16.27 RPKM, the “Expression of mRNA in BFU-E” value (gene Tns1) was 20.01 RPKM and the “Expression of mRNA in BFU-E” value (gene Tph1) was 5.51 RPKM. For the same molecule, the “Expression level log2((100 nM DEX)* (0 nM DEX))” value (gene Trib2) was 4.11, the “Expression of mRNA in BFU-E” value (gene Trib2) was 6.12 RPKM and the “Expression of mRNA in BFU-E” value (gene Tsc22d3) was 19.83 RPKM. For the same molecule, the “Expression level log2((100 nM DEX)* (0 nM DEX))” value (gene Txnip) was 8.13, the “Expression of mRNA in BFU-E” value (gene Txnip) was 24.97 RPKM and the “Expression of mRNA in BFU-E” value (gene Wdr21) was 48.20 RPKM. The “Expression change log2 ((100 nM DEX)/(0 nM DEX))2” value (gene Wdr60) was 1.05, the “Expression level log2((100 nM DEX)* (0 nM DEX))” value (gene Wdr60) was 5.00 and the “Expression of mRNA in BFU-E” value (gene Wdr60) was 8.14 RPKM. For the same molecule, the “Expression change log2 ((100 nM DEX)/(0 nM DEX))2” value (gene Zbtb16) was 1.30, the “Expression level log2((100 nM DEX)* (0 nM DEX))” value (gene Zbtb16) was 3.93 and the “Expression of mRNA in BFU-E” value (gene Zbtb16) was 6.14 RPKM. The “Expression of mRNA in BFU-E” value (gene Zfp1) was 5.67 RPKM, the “Expression change log2 ((100 nM DEX)/(0 nM DEX))” value (gene Zfp1) was 2.96 and the “Expression level log2((100 nM DEX)* (0 nM DEX))” value (gene Zfp36l2) was 13.36. For the same molecule, the “Expression of mRNA in BFU-E” value (gene Zfp36l2) was 163.74 RPKM and the “Genes upregulated 50% or more” value (multiplied RPKM count greater than zero) was 395 genes.
